Assay results reported in patent US8940936B2, “Aryloxy phenoxy acrylic compound having HIF-1 inhibition activity, method for preparing same, and pharmaceutical composition containing same as an active ingredient” (Korea Research Institute of Bioscience and Biotechnology, priority 2010, dated 2015).

Assays:
HIF-1 = test: Inhibition of HIF-1 mediated HRE transcription activity (pGL3-HRE-luciferase reporter); type: cell-based, human; conditions: for HRE transcription activity (%): HCT116, hypoxic condition 12 hours
Description: To investigate the inhibition of HIF-1 transcription activity by the compound of the present invention, pGL3-basic vector (Promega) using luciferase as a reporter was cloned in multi-cloning site so as for HRE (Hypoxia Responsive Element, 5′-ACGTG-3′) existing in human VEGF gene to be repeated 6 times, resulting in the construction of pGL3-HRE-luciferase vector.
The human rectal cancer cell line HCT116 was seeded in a 48-well cell culture vessel. On the next day, the cells were transfected with 25 ng of pGL3-HRE-luciferase vector and 2.5 ng of Renilla control vector by using Polyfect reagent. After culturing the cells for 24 hours, the medium was replaced, followed by further culture for 4 hours. Then, the cells were treated with the compound prepared in each example at the concentration of 10 μM respectively, followed by culture in hypoxic condition (oxygen 1%, nitrogen 94%, carbon dioxide 5%) for 12 hours. Lysate was obtained by using RIPA buffer, by which hypoxia-induced luciferase activity was measured by using dual-luciferase assay system (Promega). Hypoxia-induced luciferase activity after the treatment of the compound prepared in example 1 or the compound prepared in comparative example 1 was measured by the same manner as described above except that the compound was treated at the concentrations of 0, 1, 3, 5, 10, and 20 μM. HIF-1 inhibition activity of each compound prepared in example 1 and comparative example 1 respectively was compared and the results are shown in Table 2 and FIG. 2.

EPO (erythropoietin) = test: Expression of HIF-1 target gene EPO (RT-PCR, HCT116); type: cell-based, human; conditions: mRNA, HCT116, hypoxic condition, 0, 10, 20 μM; FIG. 5
Description: To investigate HIF-1 inhibition activity of the compound of the present invention, the inhibition of VEGF and EPO, two most representative HIF-1 target genes, by the compound of formula 1 prepared in example 1 was measured. Particularly, the colon cancer cell line HCT116 was used for the measurement as follows.
The human colon cancer cell line HCT116 was seeded in cell culture vessel at the density of 2×10^5 cell/ml, followed by culture for 24 hours. The cells were pretreated in hypoxic condition (oxygen 1%; nitrogen 94%; carbon dioxide 5%) for 4 hours to induce the accumulation of HIF-1α. The cells were treated with the compound of formula 1 prepared in example 1 at the concentrations of 0, 10, and 20 μM, followed by culture for 12 hours in hypoxic condition. Then, mRNA was extracted by using trizol. To compare the expression with that of HIF-1 target gene treated with the compound prepared in comparative example 1, the control was treated with the compound of comparative example 1 at the concentrations of 0, 10, 15, and 20 μM. From the extracted mRNA, cDNA was synthesized by using RT-PCR kit (Invitrogen). The amounts of mRNAs of the HIF-1α target genes VEGF (vascular endothelial growth factor A) and EPO (erythropoietin) were measured by using RT-PCR and real-time RT-PCR. […]

HIF-1α = HIF-1α expression in tumor tissue (tumor tissue immune response experiment, Caki-1 model); type: in vivo, mouse; conditions: Caki-1 tumor, optical microscope; FIG. 6
Description: In addition, to investigate whether or not the anticancer activity shown in experimental example 5 was attributed to the decrease of HIF-1α expression, tumor tissue immune response experiment was performed.

[1] = tested on: B16F10 melanoma cell line; test: Angiogenesis inhibition activity in B16F10 tumor tissue; type: in vivo, mouse; conditions: FIG. 7, FIG. 8
Description: The following experiment was performed to investigate if the compound of formula 1 could inhibit angiogenesis along with the tumor growth.
Particularly, the experimental group composed of 5 female mice (C57BL) at 6 weeks was transplanted with B16F10 melanoma cell line. After the cancer cells were grown, the mice were treated with the compound of formula 1 via intraperitoneal injection at the dose of […] for 5 days. Inhibition of angiogenesis and the tumor growth were observed. In the meantime, the control group was treated with the mixed solution comprising 10% DMAC, 10% cremophor and 80% buffer (pH 10) every day. The comparative group was treated with topotecan at the dose of 2 mg/kg once every other day. Weight changes and the newly generated blood vessels were measured and the results are shown in Table 7, Table 8, FIG. 7, and FIG. 8. The tumor volume shown in Table 8 was calculated by the mathematical formula 1 of experimental example 4 and the inhibition rate was calculated by the mathematical formula 2 of experimental example 4.

HCT116 cells = test: Cell migration inhibition activity (wound-healing experiment); type: cell-based, human; conditions: 10 μM, 48 hours, FIG. 9
Description: To evaluate cell migration inhibition effect of the compound of example 1, wound-healing experiment was performed. Particularly, an insert (Ibidi) was placed in the center of a 6-well cell culture dish and HCT116 cells (3×10^5 cell/ml) were loaded in each well by 70 μl. Medium was filled in around the insert. 24 hours later, the insert was carefully eliminated by using forceps, and the cells were washed with medium carefully not to be detached from the bottom of the culture dish. The control group was added with the diluted medium supplemented with DMSO. The experimental group was added with the diluted medium supplemented with 10 μM of the compound of example 1. 48 hours later, cell migration in each group was observed.

COC(=O)c1cccc(NC(=O)/C=C/Oc2ccc(C34CC5CC(CC(C5)C3)C4)cc2)c1 [Example 1, (E)-3-[3-(4-Adamantan-1-yl-phenoxy)-acryloylamino]-benzoic acid methyl ester]
HRE transcription activity (%) (HIF-1; 1 μM): 57.7% | HRE transcription activity (%) (HIF-1; 3 μM): 32.1% | HRE transcription activity (%) (HIF-1; 5 μM): 25.4% | HRE transcription activity (%) (HIF-1; 10 μM): 23.0% | HRE transcription activity (%) (HIF-1; 20 μM): 19.8% | inhibition effect on HRE transcription activity compared with the compound of comparative example 1 (HIF-1; cancer cell line HCT116, hypoxia): at least three times higher inhibition effect | expression of EPO (EPO (erythropoietin)): inhibited the expressions of VEGF and EPO, the HIF-1 target genes, dose-dependently | HIF-1α expression in tumor tissue (HIF-1α): significantly reduced | reduction of angiogenesis compared with non-treated group [1]: ~40% | cell migration (HCT116 cells): significantly reduced cell migration
